For one experiment, the system named is Daudi cells. The experiment in a line: Proliferation inhibition of Daudi cells (Cell Titer-Glo, 72 h). It counts as cell-based. The conditions noted are these: 72 h drug action, class key in μM. The protocol: (§1) Experimental procedure: A certain number of cells in the logarithmic growth phase were inoculated in a 96-well plate and cultured at 37° C. before adding drugs. After 72 h of drug action, after the 96-well cell plate was equilibrated to room temperature, 40 μL of Cell Titer-Glo® reagent was added to each well; each plate was then shaken for 2 min and allowed to stand for 10 min, the chemiluminescent signal was detected with an MD SpectraMax Paradigm microplate reader. Data analysis: The formula is as follows: […]
(§2) Max signal: DMSO signal; Min signal: medium signal, IC50 was calculated using GraphPad Prism 5.

A further experiment deals with BaF3-TEL-JAK3 cells. The experiment in a line: Proliferation inhibition of BaF3-TEL-JAK3 cells (Cell Titer-Glo, 72 h). It counts as cell-based. Particulars: 72 h drug action, class key in μM. How it is done: as §1, §2
A general note: In ATP-based viability assays light output follows the ATP content of the culture.

The target in a further experiment is BTK (Homo sapiens (Human), UniProt Q06187). The experiment in a line: BTK kinase inhibitory activity experiment (Caliper EZ reader conversion rate). The conditions noted are these: for IC50: in vitro kinase assay, 20 min incubation, class key in μM; for inhibitory activity on BTK (in words): summary of Table 1. It counts as biochemical. The protocol:
(§3) Experimental method: The 384-well plate was divided into compound wells (starting at 10 μM, diluted three times to produce 10 concentrations), positive control wells and negative control wells; kinase solution was added to compound wells and positive control wells, and 1×kinase buffer was added to negative control wells; the solution is next centrifuged for 30 seconds and incubated at room temperature for 10 min. Add 15 μL of the mixed solution of ATP and substrate, shake and mix well after centrifugation and incubate at room temperature (30 min for JAK3, 20 min for BTK). Add stop detection solution to stop the reaction, and read the conversion rate with Caliper EZ reader, Data analysis: The formula is as follows: […]
(§4) where Conversion %_sample is the conversion rate reading of the sample Conversion %_min is the average value of the negative control wells representing the conversion rate reading of the wells without enzyme addition; and Conversion %_max is the average value of the positive control wells representing the conversion rate reading of the wells without adding the compound. Fit the dose-response curve: Taking the log value of the concentration as the X-axis, and the percentage inhibition rate as the Y-axis, the dose-response curve was fitted using the log (inhibitor) vs. response-Variable slope of the software GraphPad Prism 5, so as to obtain the IC50 value of each compound on the enzyme activity.

For another experiment, the target named is JAK3 (Homo sapiens (Human), UniProt P52333). The experiment in a line: JAK3 kinase inhibitory activity experiment (Caliper EZ reader conversion rate). It counts as biochemical. Particulars: for IC50: in vitro kinase assay, 30 min incubation, class key in μM; for inhibitory activity on JAK3 (in words): summary of Table 1. How it is done:
as §3, §4

Molecules are shown by their SMILES.

The results in this text go back to patent US20240059694A1, “COMPOUND CONTAINING 1,3-BENZODIOXOL STRUCTURE AND PREPARATION METHOD AND USE THEREOF” (priority 2021, published 2024).

Sequence of BTK (Q06187 whole entry): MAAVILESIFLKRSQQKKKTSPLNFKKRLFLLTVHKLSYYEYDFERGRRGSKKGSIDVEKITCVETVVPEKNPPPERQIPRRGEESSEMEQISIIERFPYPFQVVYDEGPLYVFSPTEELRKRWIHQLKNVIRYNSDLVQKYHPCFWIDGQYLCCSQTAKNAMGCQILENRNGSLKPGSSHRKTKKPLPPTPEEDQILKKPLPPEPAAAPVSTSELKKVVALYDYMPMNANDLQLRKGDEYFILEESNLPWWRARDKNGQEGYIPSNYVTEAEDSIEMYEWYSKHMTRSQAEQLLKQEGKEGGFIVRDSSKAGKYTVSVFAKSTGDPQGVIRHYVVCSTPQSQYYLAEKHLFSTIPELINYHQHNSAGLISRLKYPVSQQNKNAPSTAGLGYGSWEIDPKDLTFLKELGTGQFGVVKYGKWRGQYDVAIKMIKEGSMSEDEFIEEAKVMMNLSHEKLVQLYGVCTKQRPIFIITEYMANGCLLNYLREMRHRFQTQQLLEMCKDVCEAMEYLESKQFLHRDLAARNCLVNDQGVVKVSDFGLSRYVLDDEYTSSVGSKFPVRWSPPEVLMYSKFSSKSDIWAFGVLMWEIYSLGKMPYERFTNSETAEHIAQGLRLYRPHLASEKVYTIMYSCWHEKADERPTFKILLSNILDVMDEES
Sequence of JAK3 (P52333 whole entry): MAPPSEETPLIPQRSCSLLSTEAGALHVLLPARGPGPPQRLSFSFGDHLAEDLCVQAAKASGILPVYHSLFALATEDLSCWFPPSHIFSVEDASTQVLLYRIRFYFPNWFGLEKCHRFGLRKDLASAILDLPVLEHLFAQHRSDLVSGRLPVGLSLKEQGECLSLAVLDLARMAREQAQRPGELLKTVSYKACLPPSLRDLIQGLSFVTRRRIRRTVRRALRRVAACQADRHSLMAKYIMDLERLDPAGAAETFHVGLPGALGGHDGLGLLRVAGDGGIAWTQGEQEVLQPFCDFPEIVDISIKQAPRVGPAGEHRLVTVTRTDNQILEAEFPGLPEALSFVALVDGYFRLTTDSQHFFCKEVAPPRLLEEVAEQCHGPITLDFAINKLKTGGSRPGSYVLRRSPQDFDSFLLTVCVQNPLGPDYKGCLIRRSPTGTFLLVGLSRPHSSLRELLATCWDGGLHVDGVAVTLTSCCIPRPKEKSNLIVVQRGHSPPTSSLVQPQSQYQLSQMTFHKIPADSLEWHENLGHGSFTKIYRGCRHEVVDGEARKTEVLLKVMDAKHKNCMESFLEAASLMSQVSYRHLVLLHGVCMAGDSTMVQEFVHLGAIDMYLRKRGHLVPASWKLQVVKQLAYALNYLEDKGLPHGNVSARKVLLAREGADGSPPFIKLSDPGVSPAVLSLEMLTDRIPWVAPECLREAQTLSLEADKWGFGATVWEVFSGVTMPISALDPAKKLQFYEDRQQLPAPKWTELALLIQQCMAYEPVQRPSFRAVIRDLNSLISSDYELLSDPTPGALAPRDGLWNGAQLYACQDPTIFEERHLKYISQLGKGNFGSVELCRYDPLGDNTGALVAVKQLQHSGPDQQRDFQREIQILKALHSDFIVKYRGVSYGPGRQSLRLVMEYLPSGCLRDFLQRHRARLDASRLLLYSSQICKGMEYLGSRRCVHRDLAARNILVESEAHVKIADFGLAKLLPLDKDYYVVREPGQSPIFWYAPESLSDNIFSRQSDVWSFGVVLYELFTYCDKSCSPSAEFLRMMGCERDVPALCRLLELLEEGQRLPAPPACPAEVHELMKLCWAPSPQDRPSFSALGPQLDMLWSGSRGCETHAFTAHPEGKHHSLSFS

Regarding `C=CC(=O)N1CCC[C@@H](n2nc(-c3ccc(NC(=O)c4ccc(N(C)C)cc4)c4c3OCO4)c3c(N)ncnc32)C1` [I-13, (R)-N-(7-(1-(1-acryloylpiperidin-3)-4-amino-1H-pyrazolo[3,4-d]pyrimidin-3-)benzo[d][1,3]dioxoheterocyclopenten-4)-4-(dimethylamino)benzamide], the 50% inhibitory concentration (IC50) – broadly, the concentration needed to halve the response being measured – with Daudi cells lay in the range of 0.5 to 1 µM; in the experiment on BaF3-TEL-JAK3 cells, 0.01 to 0.5 µM; on BTK it was 0.001 to 0.05 µM; on JAK3, 0.001 to 0.05 µM.
As for `C=CC(=O)N1CCC[C@@H](n2nc(-c3ccc(NC(=O)c4ccc(C(C)(C)C)cc4)c4c3OCO4)c3c(N)ncnc32)C1` [I-11, (R)-N-(7-(1-(1-acryloylpiperidin-3)-4-amino-1H-pyrazolo[3,4-d]pyrimidin-3-)benzo[d][1,3]dioxoheterocyclopenten-4)-4-tert-butylbenzamide], the IC50 with Daudi cells was in the range of 0.01 to 0.5 µM; in the experiment with BaF3-TEL-JAK3 cells it was 0.01 to 0.5 µM; at BTK it was 0.001 to 0.05 µM; at JAK3 it was 0.001 to 0.05 µM. Further, the “inhibitory activity on BTK (in words)” value against BTK is listed as “excellent inhibitory activity”. For the same molecule, on JAK3, the “inhibitory activity on JAK3 (in words)” value is listed as “excellent inhibitory activity”.
Consider `C=CC(=O)N1CCC[C@@H](n2nc(-c3ccc(NC(=O)c4ccc5ccccc5c4)c4c3OCO4)c3c(N)ncnc32)C1` [I-18, (R)-N-(7-(1-(1-acryloylpiperidin-3)-4-amino-1H-pyrazolo[3,4-d]pyrimidin-3-)benzo[d][1,3]dioxoheterocyclopenten-4)-2-naphthalenecarboxamide], for which the IC50 was in the range of 0.5 to 1 µM in the experiment on Daudi cells, 0.5 to 1 µM with BaF3-TEL-JAK3 cells, 0.001 to 0.05 µM against BTK and 0.001 to 0.05 µM against JAK3.
As to `C=CC(=O)N1CCC[C@@H](n2nc(-c3ccc(NC(=O)c4ccc(Cl)cc4)c4c3OCO4)c3c(N)ncnc32)C1` [I-7, (R)-N-(7-(1-(1-acryloylpiperidin-3)-4-amino-1H-pyrazolo[3,4d]pyrimidin-3-)benzo[d][1,3]dioxoheterocyclopenten-4)-4-chlorobenzamide], the IC50 in the experiment on Daudi cells is 0.5 to 1 µM; with BaF3-TEL-JAK3 cells, 0.5 to 1 µM; against BTK it was 0.001 to 0.05 µM; on JAK3 it was 0.001 to 0.05 µM. The “inhibitory activity on BTK (in words)” value against BTK is listed as “excellent inhibitory activity”. Moreover, the “inhibitory activity on JAK3 (in words)” value at JAK3 is “excellent inhibitory activity”.
Regarding `C=CC(=O)N1CCC[C@@H](n2nc(-c3ccc(NC(=O)c4ccc[nH]4)c4c3OCO4)c3c(N)ncnc32)C1` [I-3, (R)-N-(7-(1-(1-acryloylpiperidin-3-yl)-4-amino-1H-pyrazolo[3,4d]pyrimidin-3-)benzo[d][1,3]dioxoheterocyclopenten-4)-1H-pyrrole-2-formamide], the half-inhibitory concentration (IC50) with Daudi cells lay within 0.5 to 1 µM; in the experiment on BaF3-TEL-JAK3 cells, 0.5 to 1 µM; against BTK, 0.001 to 0.05 µM; against JAK3 it was 0.05 to 0.5 µM.
Turning to `C=CC(=O)N1CCC[C@@H](n2nc(-c3ccc(NC(=O)c4sc5ccccc5c4Cl)c4c3OCO4)c3c(N)ncnc32)C1` [I-16, (R)-N-(7-(1-(1-acryloylpiperidin-3)-4-amino-1H-pyrazolo[3,4-d]pyrimidin-3-yl)benzo[d][1,3]dioxoheterocyclopenten-4-)-3-chlorobenzo[b]thiophene-2-formamide], the IC50 in the experiment on Daudi cells is 0.01 to 0.5 µM; with BaF3-TEL-JAK3 cells, 0.01 to 0.5 µM; against BTK, 0.001 to 0.05 µM; against JAK3, 0.001 to 0.05 µM.
In the case of `C=CC(=O)N1CCC[C@@H](n2nc(-c3ccc(NC(=O)c4cccc(Cl)c4)c4c3OCO4)c3c(N)ncnc32)C1` [I-6, (R)-N-(7-(1-(1-acryloylpiperidin-3)-4-amino-1H-pyrazolo[3,4-d]pyrimidin-3-)benzo[d][1,3]dioxoheterocyclopenten-4)-3-chlorobenzamide], the half-maximal inhibitory concentration (IC50) was 0.5 to 1 µM in the experiment on Daudi cells, 0.5 to 1 µM in the experiment on BaF3-TEL-JAK3 cells, 0.001 to 0.05 µM against BTK and 0.001 to 0.05 µM against JAK3. Further, at BTK, the “inhibitory activity on BTK (in words)” value is on record as “excellent inhibitory activity”. Further, the “inhibitory activity on JAK3 (in words)” value against JAK3 is “excellent inhibitory activity”.
With `C=CC(=O)N1CCC[C@@H](n2nc(-c3ccc(NC(=O)c4ccccn4)c4c3OCO4)c3c(N)ncnc32)C1` [I-4, (R)-N-(7-(1-(1-acryloylpiperidin-3)-4-amino-1H-pyrazolo[3,4-d]pyrimidin-3-yl)benzo[d][1,3]dioxoheterocyclopenten-4)pyridine-2-formamide], the IC50 fell in the range of 0.5 to 1 µM in the experiment on Daudi cells, 0.5 to 1 µM with BaF3-TEL-JAK3 cells, 0.001 to 0.05 µM on BTK and 0.05 to 0.5 µM against JAK3.
With `C=CC(=O)N1CCC[C@@H](n2nc(-c3ccc(NC(=O)c4cccc5c4CCCC5)c4c3OCO4)c3c(N)ncnc32)C1` [I-20, (R)-N-(7-(1-(1-acryloylpiperidin-3-yl)-4-amino-1H-pyrazolo[3,4-d]pyrimidin-3-)benzo[d][1,3]dioxoheterocyclopenten-4-)-5,6,7,8-tetrahydronaphthalene-1-carboxamide], the IC50 lay in the range of 0.5 to 1 µM with Daudi cells, 0.5 to 1 µM with BaF3-TEL-JAK3 cells, 0.001 to 0.05 µM against BTK and 0.001 to 0.05 µM on JAK3.
`C=CC(=O)N1CCC[C@@H](n2nc(-c3ccc(NC(=O)c4ccccc4)c4c3OCO4)c3c(N)ncnc32)C1` [I-1, (R)-N-(7-(1-(1-acryloylpiperidin-3-yl)-4-amino-1H-pyrazolo[3,4-d]pyrimidin-3-)benzo[d][1,3]dioxoheterocyclopenten-4-)benzamide]: the concentration for half-maximal inhibition (IC50) was in the range of 0.5 to 1 µM in the experiment on Daudi cells, 0.5 to 1 µM in the experiment with BaF3-TEL-JAK3 cells, 0.001 to 0.05 µM on BTK and 0.05 to 0.5 µM against JAK3.
Turning to `C=CC(=O)N1CCC[C@@H](n2nc(-c3ccc(NC(=O)c4cccc5ccccc45)c4c3OCO4)c3c(N)ncnc32)C1` [I-17, (R)-N-(7-(1-(1-acryloylpiperidin-3-yl)-4-amino-1H-pyrazolo[3,4-d]pyrimidin-3-)benzo[d][1,3]dioxoheterocyclopenten-4-)-1-naphthalenecarboxamide], the IC50 with Daudi cells is 0.5 to 1 µM; with BaF3-TEL-JAK3 cells, 0.5 to 1 µM; against BTK, 0.001 to 0.05 µM; against JAK3 it was 0.001 to 0.05 µM.
Regarding `C=CC(=O)N1CCC[C@@H](n2nc(-c3ccc(NC(=O)c4ccc(N(CC)CC)cc4)c4c3OCO4)c3c(N)ncnc32)C1` [I-15, (R)-N-(7-(1-(1-acryloylpiperidin-3)-4-amino-1H-pyrazolo[3,4-d]pyrimidin-3-)benzo[d][1,3]dioxoheterocyclopenten-4)-4-(diethylamino)benzamide], the half-maximal inhibitory concentration (IC50) in the experiment on Daudi cells lay within 0.5 to 1 µM; with BaF3-TEL-JAK3 cells, 0.01 to 0.5 µM; at BTK, 0.001 to 0.05 µM; against JAK3, 0.001 to 0.05 µM.
